Test results published in patent publication US10005767B2, “Compositions and methods for inhibition of the JAK pathway” (Rigel Pharmaceuticals, Inc., priority 2009, dated 2018).
Like-named read-outs stand apart in the source and are kept apart here.

Test system: human primary T-cells, IL-2 stimulated proliferation (JAK-1 and JAK-3 dependent; reported as JAK3 activity)
Experiment: Human primary T-cell proliferation stimulated by IL-2 (Example 3)
Type: cell-based
Conditions: tested under conditions described in Example 3 (IL-2 stimulated human primary T-cell proliferation), read-out: ability to inhibit JAK3 activity, IC50 range (Table V)
Description: The activity of the compounds described herein can further be characterized by assaying the effect of the 2,4-pyrimidinediamine compounds described herein on the proliferative response of primary human T-cells. In this assay, primary human T-cells derived from peripheral blood and pre-activated through stimulation of the T-cell receptor and CD28, proliferate in culture in response to the cytokine Interleukin-2 (IL-2). This proliferative response is dependent on the activation of JAK1 and JAK3 tyrosine kinases, which phosphorylate and activate the transcription factor Stat-5. The primary human T-cells are incubated with the 2,4-pyrimidinediamine compounds in the presence of IL-2 for 72 hours, and at the assay endpoint intracellular ATP concentrations are measured to assess cell viability. A reduction in cell proliferation compared to control conditions is indicative of inhibition of the JAK kinase pathway.
Primary human T-cells derived from peripheral blood and pre-activated through stimulation of the T-cell receptor and CD28, proliferate in vitro in response to the cytokine Interleukin-2 (IL-2). This proliferative response is dependent on the activation of JAK-1 and JAK-3 tyrosine kinases, which phosphorylate and activate the transcription factor Stat-5.
Human primary T cells were prepared as follows. […] The lymphocytes at the serum: ficoll interface were recovered and washed twice with 5 volumes of PBS. […] The primary T-cells were stimulated for 3-4 days, then transferred to a fresh flask and maintained in RPMI with 10% FBS and 40 U/mL IL-2.
The day prior to the assay set up, primary T-cells were centrifuged and resuspended in fresh RPMI with 10% FBS but without IL-2 and starved overnight. For the assay, the primary T-cells were centrifuged and resuspended Yssel's medium at 2×10^6 cells/mL. 50 μL of cell suspension containing 80 U/mL IL-2 was added to each well of a flat bottom 96 well black plate. For the unstimulated control, IL-2 was omitted from the last column on the plate. […] 50 μL of 2× compound was added per well in duplicate and the cells were allowed to proliferate for 72 hours at 37° C.
Proliferation was measured using CellTiter-Glo® Luminescent Cell Viability Assay (Promega), which determines the number of viable cells in culture based on quantitation of the ATP present, as an indicator of metabolically active cells. The substrate was thawed and allowed to come to ambient temperature. After mixing the Cell Titer-Glo reagent and diluent together, 100 μL was added to each well. The plates were mixed on an orbital shaker for two minutes to induce lysis and incubated at ambient temperature for an additional ten minutes to allow the signal to equilibrate.
The compound designations in Table V are consistent with those of Tables I-IV above.

SMILES | IC50 (Homo sapiens, T-cell) | IC50
COc1ncc(Nc2ncc(C)c(Nc3ccc4oc(=O)[nH]c4c3)n2)cc1C(F)(F)F [II-147, N2-(2-methoxy-3-trifluoromethylpyridin-5-yl)-5-methyl-N4-(2-oxo-2,3-dihydro-1,3-benzoxazol-5-yl)-2,4-pyrimidinediamine] | < 500 nM | 
CCNC(=O)c1ccc(Nc2ncc(C)c(Nc3ccc4oc(=O)[nH]c4c3)n2)cc1C [Compound I-171, N-Ethyl-2-methyl-4-[5-methyl-4-(2-oxo-2,3-dihydro-benzooxazol-5-ylamino)-pyrimidin-2-ylamino]-benzamide] | < 500 nM | 
Cc1cnc(Nc2cccc(C(C)NC(C)C)c2)nc1Nc1ccc2oc(=O)[nH]c2c1 (stereo not drawn) [Compound I-209, 5-(2-(3-(1-(isopropylamino)ethyl)phenylamino)-5-methylpyrimidin-4-ylamino)benzo[d]oxazol-2(3H)-one] | < 500 nM | 
COc1c(F)cc(Nc2ncc(C)c(Nc3ccc4oc(=O)[nH]c4c3)n2)cc1F [Compound I-381, N2-(3,5-difluoro-4-methoxy)phenyl-5-methyl-N4-(2-oxo-2,3-dihydro-1,3-benzoxazol-5-yl)-2,4-pyrimidinediamine] |  | < 500 nM
Cc1cnc(Nc2ccc(OC(F)(F)F)c(C(F)(F)F)c2)nc1Nc1ccc2oc(=O)[nH]c2c1 [Compound I-161, 5-[5-Methyl-2-(4-trifluoromethoxy-3-trifluoromethyl-phenylamino)-pyrimidin-4-ylamino]-3H-benzooxazol-2-one] | < 500 nM | 
Cc1cnc(Nc2ccc(F)c(S(C)(=O)=O)c2)nc1Nc1ccc2oc(=O)[nH]c2c1 [Compound I-242, 5-(2-(4-fluoro-3-(methylsulfonyl)phenylamino)-5-methylpyrimidin-4-ylamino)benzo[d]oxazol-2(3H)-one] | < 500 nM | 
Cc1cnc(Nc2cc(C)c(OCCN3CCOCC3)c(C)c2)nc1Nc1ccc2oc(=O)[nH]c2c1 [Compound I-459, 5-(2-(3,5-dimethyl-4-(2-morpholinoethoxy)phenylamino)-5-methylpyrimidin-4-ylamino)benzo[d]oxazol-2(3H)-one] | < 500 nM | 
Cc1cnc(Nc2cccc(C(O)C(F)(F)F)c2)nc1Nc1ccc2oc(=O)[nH]c2c1 (stereo not drawn) [Compound I-304, N2-[3-(1-hydroxy-2,2,2-trifluoroethyl)]phenyl-5-methyl-N4-(2-oxo-2,3-dihydro-1,3-benzoxazol-5-yl)-2,4-pyrimidinediamine] |  | < 500 nM
Cc1cnc(Nc2cnc(C3CC4CCC(C3)N4C(=O)OC(C)(C)C)c(C)c2)nc1Nc1ccc2oc(=O)[nH]c2c1 (stereo not drawn) [II-65, tert-butyl 3-(3-methyl-5-(5-methyl-4-(2-oxo-2,3-dihydrobenzo[d]oxazol-5-ylamino)pyrimidin-2-ylamino)pyridin-2-yl)-8-azabicyclo[3.2.1]octane-8-carboxylate] | < 500 nM | 
Cc1cnc(Nc2ccc(OC(F)F)c(F)c2)nc1Nc1ccc2oc(=O)[nH]c2c1 [Compound I-347, N2-(4-difluoromethoxy-3-fluoro)phenyl-5-methyl-N4-(2-oxo-2,3-dihydro-1,3-benzoxazol-5-yl)-2,4-pyrimidinediamine] |  | < 500 nM
Cc1cnc(Nc2ccc3c(c2)CN(CCC(C)C)C3)nc1Nc1ccc2oc(=O)[nH]c2c1 [III-9, N4-(benzo[d]oxazol-2(3H)-on-5-yl)-N2-(2-isopentylisoindolin-5-yl)-5-methylpyrimidine-2,4-diamine] | < 500 nM | 
Cc1ccc(Nc2ncc(C)c(Nc3ccc4oc(=O)[nH]c4c3)n2)cc1-c1cccnc1 [Compound I-444, 5-(5-methyl-2-(4-methyl-3-(pyridin-3-yl)phenylamino)pyrimidin-4-ylamino)benzo[d]oxazol-2(3H)-one] | < 500 nM | 
Cc1cnc(Nc2cccc(C(C)NCc3ccccc3)c2)nc1Nc1ccc2oc(=O)[nH]c2c1 (stereo not drawn) [Compound I-213, 5-(2-(3-(1-(benzylamino)ethyl)phenylamino)-5-methylpyrimidin-4-ylamino)benzo[d]oxazol-2(3H)-one] | < 500 nM | 
Cc1cnc(Nc2cccc(S(N)(=O)=O)c2)nc1Nc1ccc2c(c1)oc(=O)n2C [Compound I-63, N2-((3-aminosulfonyl)phenyl)-N4-(3-methyl-2-oxo-2,3-dihydrobenzo[d]oxazol-6-yl)-5-methylpyrimidine-2,4-diamine] |  | < 500 nM
CCN1CCN(c2ccc(Nc3ncc(C)c(Nc4ccc5oc(=O)[nH]c5c4)n3)cc2Cl)CC1 [Compound I-278, N2-[3-chloro-4-(4-ethylpiperazino)]phenyl-5-methyl-N4-(2-oxo-2,3-dihydro-1,3-benzoxazol-5-yl)-2,4-pyrimidinediamine] |  | < 500 nM
CCCn1c(=O)oc2ccc(Nc3nc(Nc4ccc(NS(C)(=O)=O)cc4)ncc3C)cc21 [Compound I-8, N4-(3-n-propylbenzo[d]oxazol-2(3H)-on-5-yl)-N2-((4-methylsulfonylamino)phenyl)-5-methylpyrimidine-2,4-diamine] |  | < 500 nM
Cc1cnc(Nc2cc(OCC3CC3)cc(C(F)(F)F)c2)nc1Nc1ccc2oc(=O)[nH]c2c1 [Compound I-225, 5-(2-(3-(cyclopropylmethoxy)-5-(trifluoromethyl)phenylamino)-5-methylpyrimidin-4-ylamino)benzo[d]oxazol-2(3H)-one] | 500 to 5000 nM | 
Cc1cnc(Nc2cc(C(C)O)ccc2F)nc1Nc1ccc2oc(=O)[nH]c2c1 (stereo not drawn) [Compound I-523, 5-(2-(2-fluoro-5-(1-hydroxyethyl)phenylamino)-5-methylpyrimidin-4-ylamino)benzo[d]oxazol-2(3H)-one] | < 500 nM | 
COCCOc1ccc(Nc2ncc(C)c(Nc3ccc4oc(=O)[nH]c4c3)n2)cn1 [II-145, N2-[2-(2-methoxy)ethoxypyridin-5-yl]-5-methyl-N4-(2-oxo-2,3-dihydro-1,3-benzoxazol-5-yl)-2,4-pyrimidinediamine] |  | < 500 nM
Cc1cnc(Nc2ccc(N3CCN(C(=O)OC(C)(C)C)[C@@H](C)C3)nc2)nc1Nc1ccc2oc(=O)[nH]c2c1 [II-41, (S)-2-Methyl-4-{5-[5-methyl-4-(2-oxo-2,3-dihydro-benzooxazol-5-ylamino)-pyrimidin-2-ylamino]-pyridin-2-yl}-piperazine-1-carboxylic acid tert-butyl ester] | < 500 nM | 
CC(=O)c1cc(Nc2ncc(C)c(Nc3ccc4oc(=O)[nH]c4c3)n2)cc(C(F)(F)F)c1 [Compound I-445, 5-(2-(3-acetyl-5-(trifluoromethyl)phenylamino)-5-methylpyrimidin-4-ylamino)benzo[d]oxazol-2(3H)-one] | < 500 nM | 
Cc1cnc(Nc2cccc(S(C)(=O)=O)c2)nc1Nc1cc(F)c2oc(=O)[nH]c2c1 [Compound I-249, 7-fluoro-5-(5-methyl-2-(3-(methylsulfonyl)phenylamino)pyrimidin-4-ylamino)benzo[d]oxazol-2(3H)-one] | < 500 nM | 
Cc1cnc(Nc2ccc(OC(F)F)cc2)nc1Nc1ccc2oc(=O)[nH]c2c1 [Compound I-311, N2-(4-difluoromethoxy)phenyl-5-methyl-N4-(2-oxo-2,3-dihydro-1,3-benzoxazol-5-yl)-2,4-pyrimidinediamine] |  | < 500 nM
Cc1cnc(Nc2cc(F)cc(OC(C)(C)C#N)c2)nc1Nc1ccc2oc(=O)[nH]c2c1 [Compound I-416, N2-[3-(1-cyano-1-methyl)ethoxy-5-fluoro]phenyl-5-methyl-N4-(2-oxo-2,3-dihydro-1,3-benzoxazol-5-yl)-2,4-pyrimidinediamine] |  | < 500 nM
Cc1cnc(Nc2ccnc(N3CCN(C)CC3)c2)nc1Nc1ccc2oc(=O)[nH]c2c1 [IV-8, N4-(benzo[d]oxazol-2(3H)-on-5-yl)-N2-[2-(4-methylpiperazino)pyridin-4-yl]-5-methylpyrimidine-2,4-diamine] | > 10000 nM | 
CCN(CC)CCNC(=O)c1ccc(Nc2ncc(C)c(Nc3ccc4oc(=O)[nH]c4c3)n2)cc1 [Compound I-127, N-(2-Diethylamino-ethyl)-4-[5-methyl-4-(2-oxo-2,3-dihydro-benzooxazol-5-ylamino)-pyrimidin-2-ylamino]-benzamide] | < 500 nM | 
Cc1cnc(Nc2ccc(C(=O)NC3CCC3)c(C(F)(F)F)c2)nc1Nc1ccc2oc(=O)[nH]c2c1 [Compound I-218, N-cyclobutyl-4-(5-methyl-4-(2-oxo-2,3-dihydrobenzo[d]oxazol-5-ylamino)pyrimidin-2-ylamino)-2-(trifluoromethyl)benzamide] | < 500 nM | 
